Numbered stars: 1 amine (or outer) side, 2 acyl side, 3 side chain; on linkers, the order of the positions; unused ones are H or OH. Bridge positions count the residues as written; N and C are the ends. Square brackets hold non-standard residues; d marks the D form. Peptide text beside a SMILES is read from it. * marks the point of attachment. hPhe(3,5-F2-4-CF3) = N[C@@H](CCc1cc(F)c(C(F)(F)F)c(F)c1)C(=O)O; hPhe(3-Cl-4-CF3) = N[C@@H](CCc1ccc(C(F)(F)F)c(Cl)c1)C(=O)O; hPhe(3-F,4-CF3) = N[C@@H](CCc1ccc(C(F)(F)F)c(F)c1)C(=O)O; NMeAla(4-thiazolyl) = CN[C@@H](Cc1cscn1)C(=O)O; NMePhe(4-Cl) = CN[C@@H](Cc1ccc(Cl)cc1)C(=O)O; NMePhe(4-Me) = CN[C@@H](Cc1ccc(C)cc1)C(=O)O; X40 = O=C([C@H](Cc1cc(I)ccc1F)N[*:1])[*:2]; NMedβ3hAla = C[C@H](CC(=O)[*:2])N(C)[*:1]; X64 = O=C([C@H](Cc1ccc(Br)s1)N[*:1])[*:2]; NMeGly(cPent) = CN[C@H](C(=O)O)C1CCCC1; X67 = O=C([C@@H]1CCC[C@H]1N[*:1])[*:2]; NMe3Pal = CN[C@@H](Cc1cccnc1)C(=O)O; NMeCha = CN[C@@H](CC1CCCCC1)C(=O)O; NMeChg = CN[C@H](C(=O)O)C1CCCCC1; NMeF = CN[C@@H](Cc1ccccc1)C(=O)O; NMeI = CC[C@H](C)[C@H](NC)C(=O)O; NMeD = CN[C@@H](CC(=O)O)C(=O)O; NMeL = CN[C@@H](CC(C)C)C(=O)O; NMeV = CN[C@H](C(=O)O)C(C)C; d(β3hA) = C[C@@H](N)CC(=O)O; NMeA = CN[C@@H](C)C(=O)O; NMeAib = CNC(C)(C)C(=O)O; Nle = CCCC[C@H](N)C(=O)O; Piperidide = C1CCN(*)CC1; Pyrrolidide = C1CCN(*)C1; Ac5c = NC1(C(=O)O)CCCC1; Aze = O=C(O)[C@@H]1CCN1; Ac4c = NC1(C(=O)O)CCC1; Sar = CNCC(=O)O Where only a bound is given, the exact number is not on record here.

The test deals with Human pancreatic cancer cell line AsPC-1 (G12D mutation Kras). Nature of the test: AsPC-1 cell growth inhibition (AsPC-1 CGI). The following applies: read-out: AsPC-1 cell growth inhibition, 50% growth inhibitory concentration (IC50 value); 96 hours, CellTiter-Glo, values classified in ranges. It is filed as cell-based. Background: ATP-based viability assays read luminescence as a measure of living cells.
Method: Test compounds were serially dilated with dimethyl sulfoxide, and 200 nL was then dispensed to a U-bottom 96-well plate using Labcyte Echo. […] The cell suspension was dispensed to a. plate containing a test compound at 100 μL per well and incubated at 37° C. in a 5% carbon dioxide gas incubator. 96 hours later, 80 μL of CellTiter-Glo (Promega) was added to each well and fluorescence was measured.
Regarding `CC[C@H](C)[C@@H]1NC(=O)[C@H](CC(C)C)N(C)C(=O)C[C@@H](C(=O)N2CCCCC2)N(C)C(=O)[C@H](C2CCCCC2)N(C)C(=O)C2(CCCC2)NC(=O)[C@H](Cc2cccnc2)N(C)C(=O)[C@H](CCc2ccc(C(F)(F)F)c(Cl)c2)NC(=O)CN(C)C(=O)[C@H](CC2CCCCC2)N(C)C(=O)CN(C)C(=O)CN(C)C1=O` [Compound 63] ([NMeL]I[Sar][Sar][NMeCha][Sar][hPhe(3-Cl-4-CF3)][NMe3Pal][Ac5c][NMeChg][NMeD]-Piperidide; lactam N-11), the IC50 was more than 500 nM.

Take `CC[C@H](C)[C@@H]1NC(=O)[C@H](C)N(C)C(=O)C[C@@H](C)NC(=O)[C@H](C(C)C)N(C)C(=O)[C@H](Cc2ccccc2)N(C)C(=O)[C@H](CC(C)C)N(C)C(=O)[C@H](CCc2ccc(C(F)(F)F)c(F)c2)NC(=O)CN(C)C(=O)[C@H](Cc2ccc(Cl)cc2)N(C)C(=O)[C@@H]2CCN2C(=O)CN(C)C1=O` [Compound 782] (cyclo([Aze][NMePhe(4-Cl)][Sar][hPhe(3-F,4-CF3)][NMeL][NMeF][NMeV][d(β3hA)][NMeA]I[Sar])): the IC50 is more than 500 nM.

`CC[C@H](C)[C@@H]1NC(=O)[C@H](CC(C)C)N(C)C(=O)[C@@H]2CCC[C@H]2NC(=O)[C@H](C(C)C)N(C)C(=O)C2(CCCC2)NC(=O)[C@@H]2CCCN2C(=O)[C@H](CCc2ccc(C(F)(F)F)c(Cl)c2)NC(=O)CN(C)C(=O)[C@H](CC2CCCCC2)N(C)C(=O)CN(C)C(=O)CN(C)C1=O` [Compound 347] (cyclo([Ac5c][NMeV][X67][NMeL]I[Sar][Sar][NMeCha][Sar][hPhe(3-Cl-4-CF3)]P)): the IC50 was more than 500 nM.

With `CCCC[C@@H]1NC(=O)[C@H](Cc2cc(I)ccc2F)NC(=O)CN(C)C(=O)[C@H](Cc2ccc(Cl)cc2)N(C)C(=O)CN(C)C(=O)CN(C)C(=O)[C@H]([C@@H](C)CC)NC(=O)[C@H](CC(C)C)N(C)C(=O)C[C@@H](C(=O)N2CCCCC2)N(C)C(=O)[C@H](CC(C)C)NC(=O)C(C)(C)N(C)C1=O` [Compound 1286] ([NMeL]I[Sar][Sar][NMePhe(4-Cl)][Sar][X40][Nle][NMeAib]L[NMeD]-Piperidide; lactam N-11), the IC50 was more than 500 nM.

In the case of `CC[C@H](C)[C@@H]1NC(=O)[C@H](CC(C)C)N(C)C(=O)C[C@@H](C)N(C)C(=O)[C@H]([C@@H](C)CC)N(C)C(=O)C2(CCCC2)NC(=O)[C@@H]2CCCN2C(=O)[C@H](CCc2ccc(C(F)(F)F)c(Cl)c2)NC(=O)CN(C)C(=O)[C@H](Cc2ccc(C)cc2)N(C)C(=O)CN(C)C(=O)CN(C)C1=O` [Compound 1792] (cyclo([Ac5c][NMeI][NMedβ3hAla][NMeL]I[Sar][Sar][NMePhe(4-Me)][Sar][hPhe(3-Cl-4-CF3)]P)), the IC50 was not above 20 nM.

With `CC[C@H](C)[C@@H]1NC(=O)[C@H](CC(C)C)N(C)C(=O)C[C@@H](C(=O)N2CCCC2)N(C)C(=O)[C@H](C2CCCCC2)N(C)C(=O)C2(CCC2)NC(=O)[C@@H]2CCCN2C(=O)[C@H](CCc2cc(F)c(C(F)(F)F)c(F)c2)NC(=O)CN(C)C(=O)[C@H](CC2CCCCC2)N(C)C(=O)CN(C)C(=O)CN(C)C1=O` [Compound 1165] ([NMeL]I[Sar][Sar][NMeCha][Sar][hPhe(3,5-F2-4-CF3)]P[Ac4c][NMeChg][NMeD]-Pyrrolidide; lactam N-11), the IC50 is not above 20 nM.

As for `CC[C@H](C)[C@@H]1NC(=O)[C@H](CC(C)C)N(C)C(=O)C[C@@H](C(=O)N2CCCCC2)N(C)C(=O)[C@H](C2CCCCC2)N(C)C(=O)C2(CCCC2)NC(=O)[C@H](Cc2cscn2)N(C)C(=O)[C@H](CCc2ccc(C(F)(F)F)c(Cl)c2)NC(=O)CN(C)C(=O)[C@H](CC2CCCCC2)N(C)C(=O)CN(C)C(=O)CN(C)C1=O` [Compound 500] ([NMeL]I[Sar][Sar][NMeCha][Sar][hPhe(3-Cl-4-CF3)][NMeAla(4-thiazolyl)][Ac5c][NMeChg][NMeD]-Piperidide; lactam N-11), the IC50 is more than 500 nM.

In the case of `CCCC[C@@H]1NC(=O)[C@H](Cc2ccc(Br)s2)NC(=O)CN(C)C(=O)[C@H](Cc2ccc(Cl)cc2)N(C)C(=O)CN(C)C(=O)CN(C)C(=O)[C@H]([C@@H](C)CC)NC(=O)[C@H](CC(C)C)N(C)C(=O)C[C@@H](C(=O)N2CCCCC2)N(C)C(=O)[C@H](CC(C)C)NC(=O)C(C)(C)N(C)C1=O` [Compound 1216] ([NMeL]I[Sar][Sar][NMePhe(4-Cl)][Sar][X64][Nle][NMeAib]L[NMeD]-Piperidide; lactam N-11), the IC50 was more than 500 nM.

As to `CC[C@H](C)[C@@H]1NC(=O)[C@H](CC(C)C)N(C)C(=O)C[C@@H](C)NC(=O)[C@H](C2CCCC2)N(C)C(=O)[C@H](C)NC(=O)[C@@H]2CCCN2C(=O)[C@H](CCc2ccc(C(F)(F)F)c(Cl)c2)NC(=O)CN(C)C(=O)[C@H](Cc2ccc(C)cc2)N(C)C(=O)[C@@H]2CCN2C(=O)[C@H](C)N(C)C1=O` [Compound 1221] (cyclo(A[NMeGly(cPent)][d(β3hA)][NMeL]I[NMeA][Aze][NMePhe(4-Me)][Sar][hPhe(3-Cl-4-CF3)]P)), the IC50 is more than 500 nM.

These data come from patent publication US20240148821A1, “PHARMACEUTICAL USE OF CYCLIC PEPTIDE COMPOUND” (CHUGAI SEIYAKU KABUSHIKI KAISHA, priority 2021, published 2024).
